This assay deals with Protein arginine N-methyltransferase 5 (Homo sapiens, UniProt O14744). As to the kind of experiment: Inhibition of human PRMT5 expressed in HEK293 cells coexpressing MEP50 incubated for 60 mins by chemiluminescent assay.
Protein arginine N-methyltransferase 5, sequence (O14744 whole entry): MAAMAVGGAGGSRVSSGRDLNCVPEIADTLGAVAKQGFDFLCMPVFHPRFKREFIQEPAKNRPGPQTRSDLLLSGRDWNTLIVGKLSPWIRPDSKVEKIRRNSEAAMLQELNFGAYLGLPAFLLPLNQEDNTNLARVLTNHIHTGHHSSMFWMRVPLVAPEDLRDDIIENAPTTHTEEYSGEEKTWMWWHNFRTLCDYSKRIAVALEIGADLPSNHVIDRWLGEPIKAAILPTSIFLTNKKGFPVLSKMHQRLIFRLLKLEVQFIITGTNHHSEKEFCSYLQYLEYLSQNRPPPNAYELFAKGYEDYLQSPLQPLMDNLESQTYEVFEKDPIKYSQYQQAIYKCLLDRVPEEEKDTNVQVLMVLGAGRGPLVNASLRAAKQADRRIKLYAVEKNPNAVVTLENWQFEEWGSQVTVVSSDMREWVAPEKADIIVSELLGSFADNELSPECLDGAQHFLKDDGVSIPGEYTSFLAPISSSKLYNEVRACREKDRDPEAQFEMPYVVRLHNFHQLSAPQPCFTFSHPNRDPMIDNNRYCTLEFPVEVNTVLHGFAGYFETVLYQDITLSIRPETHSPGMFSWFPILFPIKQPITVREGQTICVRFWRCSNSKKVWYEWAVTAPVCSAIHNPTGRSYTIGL

One may read the IC50 as the concentration that gives 50% inhibition. A high value points to weaker potency in that assay. Compound `CC(=O)N1CCC(Nc2cc(C(=O)NC[C@H](O)CN3CCc4c([nH]c5ccccc45)C3)ncn2)CC1` [(S)-6-((1-acetylpiperidin-4-yl)amino)-N-(2-hydroxy-3-(1,3,4,9-tetrahydro-2H-pyrido [3,4-b]indol-2-yl)propyl)pyrimidine-4-carboxamide] displayed an IC50 of 10 nM.

The values above are taken from BindingDB's records for PubMed 38359536 (China Pharmaceutical University).
